Laboratory results: patent US12246009B2, “Compositions and methods for treating neurodegenerative, myodegenerative, and lysosomal storage disorders” (GEORGETOWN UNIVERSITY, priority 2018, dated 2025)
Entries after “also recorded” stand apart in the source; their conditions may differ.

Columns and labels:
[1] = test system: B35 cells; assay: Lactate dehydrogenase (LDH) assay, cytotoxicity / cell viability; type: cell-based; conditions: for LDH measured in the media (cell death / toxicity): 24 hour transfection with pTau or α-synuclein
Method: Rat neuroblastoma B35 cells were grown in Dulbecco's Modified Eagle's Medium (DMEM) with 10% Fetal Bovine Serum (FBS) and 1% penicillin/streptomycin and incubated at 37° C. with 5% CO2. For the experiments, cells were transferred to 12-well plates (Cat. #150628, ThermoFisher, Waltham, MA) and grown to at least 70% confluence. Transient transfection was performed with 3 μg P301 L tau (Cat. #30145, Addgene) cDNA or 3 μg human α-synuclein cDNA using Fugene HD transfection reagent (Cat. #E2311, Promega, Madison WI) for 24 hours. […] Cell culture media was collected and cells were harvested using sodium-tris, EDTA, NP-40 (STEN) buffer and centrifuged at 10,000×g for 20 minutes at 4′C and supernatant was collected. Cell viability was determined via lactate dehydrogenase assay (Cat. #88954, Thermofisher) and MTT assay (Cat. #V13154, Thermofisher). Protein was extracted by removing culture medium and adding 0.2 ml 1× STEN buffer (50 mM. Tris (pH 7.6), 150 mM NaCl, 2 mM EDTA, 0.2% NP-40, 0.2% BSA, 20 mM. PMSF and protease cocktail inhibitor) to cell layer and incubated on ice for 10 minutes. The bottom of the well was scraped and allowed to incubate on ice for an additional 10 minutes. Cell lysates were collected, stored at −80° C., and used for additional analyses.
Cellular cytotoxicity was quantitatively measured by assessment of LDH; a cytosolic enzyme that is released from damaged cells into the cellular media, after exposure to the drug 5 hours after initial dosage. The cell culture media was collected, and an aliquot was coupled with a lactate and NAD+. LDH catalyzes the reaction that converts lactate into pyruvate to produce NADH. NADH, in turn, reduces a tetrazolium salt (INT) into a red formazan product. The amount of LDH in the media is proportional to the amount of formazan, which was measured at 490 nm. The absorbance at 680 nm, to measure the background signal from the instrument, was subtracted from the absorbance at 490 nm to calculate the LDH activity.

[2] = test system: pTau (181); assay: pTau (181) ELISA/Xmap in Tau expressing transgenic (rTG4510) mice; type: in vivo, mouse
[3] = test system: pTau (231) (AT180); assay: pTau (231) (AT180) Western blot in rTG4510 transgenic mice; type: in vivo, mouse; conditions: 1.25 mg/kg, 2.5 mg/kg or 5.0 mg/kg
[4] = target: T1, DDR1 (Mus musculus, UniProt Q03146); assay: Phosphorylated (active) DDR1 (pMCK10) immunoblot in rTG4510 mice; type: in vivo; conditions: for phosphorylated (active) DDR1 (pMCK10), immunoblot: 1.25 mg/kg or 2.5 mg/kg i.p.
T1 construct: Brains were collected and homogenized in 1.0 ml 1× STEN buffer; from tissue; host or cells: brain of rTg4510 or TgAPP mice
T1 sequence (Q03146 20-911): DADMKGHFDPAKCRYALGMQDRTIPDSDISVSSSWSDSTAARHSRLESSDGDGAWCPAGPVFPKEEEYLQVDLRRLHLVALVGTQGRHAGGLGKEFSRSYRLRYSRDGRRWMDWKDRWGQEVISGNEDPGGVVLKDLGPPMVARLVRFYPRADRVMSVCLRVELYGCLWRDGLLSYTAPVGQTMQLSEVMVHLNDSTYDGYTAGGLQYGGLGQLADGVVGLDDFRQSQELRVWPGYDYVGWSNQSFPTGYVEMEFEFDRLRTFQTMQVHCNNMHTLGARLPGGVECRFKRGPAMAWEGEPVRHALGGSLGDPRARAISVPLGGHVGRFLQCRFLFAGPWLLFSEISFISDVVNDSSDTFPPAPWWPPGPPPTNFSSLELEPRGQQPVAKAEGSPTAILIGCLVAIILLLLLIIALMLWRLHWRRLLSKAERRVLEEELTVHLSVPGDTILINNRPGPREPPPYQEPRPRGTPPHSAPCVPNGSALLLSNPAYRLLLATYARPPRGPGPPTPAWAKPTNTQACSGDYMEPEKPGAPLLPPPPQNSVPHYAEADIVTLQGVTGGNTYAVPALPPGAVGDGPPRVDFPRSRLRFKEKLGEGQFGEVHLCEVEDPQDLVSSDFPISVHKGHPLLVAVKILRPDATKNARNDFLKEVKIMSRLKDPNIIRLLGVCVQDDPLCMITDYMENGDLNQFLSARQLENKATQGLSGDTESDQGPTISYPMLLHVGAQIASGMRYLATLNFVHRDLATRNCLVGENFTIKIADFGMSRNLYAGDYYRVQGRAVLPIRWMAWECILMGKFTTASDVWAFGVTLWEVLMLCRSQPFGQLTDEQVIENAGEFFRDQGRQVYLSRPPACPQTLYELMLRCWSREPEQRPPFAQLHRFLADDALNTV

[5] = target: T2, Src (Mus musculus, UniProt P05480); assay: Activated Src immunoblot in rTG4510 mice; type: in vivo; conditions: rTG4510 mice, 1.25, 2.5 or 5 mg/kg i.p., 7 days
T2 construct: Brains from treated mice compared with DMSO treated mice were homogenized in STEN lysis buffer; from tissue; host or cells: brain of rTg4510 mice

[6] = target: T3, Ab1 (Mus musculus, UniProt P00520); assay: Activated Ab1 immunoblot in rTG4510 mice; type: in vivo; conditions: rTG4510 mice, 1.25, 2.5 or 5 mg/kg i.p., 7 days
T3 construct: Brains from treated mice compared with DMSO treated mice were homogenized in STEN lysis buffer; from tissue; host or cells: brain of rTg4510 or TgAPP mice

[7] = test system: dopamine; assay: Dopamine and homovanillic acid (HVA) levels in A53T mice; type: in vivo, mouse; conditions: 2.5 mg/kg i.p., 21 days
[8] = test system: A53T mice; assay: Open field test in A53T mice; type: in vivo, mouse; conditions: 60-minute trial
[9] = test system: amyloid-beta (6E10); assay: Amyloid-beta (6E10) immunoblot in transgenic APP mice; type: in vivo, mouse; conditions: 1.25 and 2.5 mg/kg i.p., 21 consecutive days
[10] = target: T1, DDR1; assay: Phosphorylated DDR1 immunoblot in transgenic APP mice; type: in vivo; conditions: 21 days
[11] = test system: hippocampus of APP mice; assay: Nissl staining of hippocampal sections of APP mice (cell death); conditions: 1.25 mg/kg and 2.5 mg/kg

T3 sequence (P00520 whole entry): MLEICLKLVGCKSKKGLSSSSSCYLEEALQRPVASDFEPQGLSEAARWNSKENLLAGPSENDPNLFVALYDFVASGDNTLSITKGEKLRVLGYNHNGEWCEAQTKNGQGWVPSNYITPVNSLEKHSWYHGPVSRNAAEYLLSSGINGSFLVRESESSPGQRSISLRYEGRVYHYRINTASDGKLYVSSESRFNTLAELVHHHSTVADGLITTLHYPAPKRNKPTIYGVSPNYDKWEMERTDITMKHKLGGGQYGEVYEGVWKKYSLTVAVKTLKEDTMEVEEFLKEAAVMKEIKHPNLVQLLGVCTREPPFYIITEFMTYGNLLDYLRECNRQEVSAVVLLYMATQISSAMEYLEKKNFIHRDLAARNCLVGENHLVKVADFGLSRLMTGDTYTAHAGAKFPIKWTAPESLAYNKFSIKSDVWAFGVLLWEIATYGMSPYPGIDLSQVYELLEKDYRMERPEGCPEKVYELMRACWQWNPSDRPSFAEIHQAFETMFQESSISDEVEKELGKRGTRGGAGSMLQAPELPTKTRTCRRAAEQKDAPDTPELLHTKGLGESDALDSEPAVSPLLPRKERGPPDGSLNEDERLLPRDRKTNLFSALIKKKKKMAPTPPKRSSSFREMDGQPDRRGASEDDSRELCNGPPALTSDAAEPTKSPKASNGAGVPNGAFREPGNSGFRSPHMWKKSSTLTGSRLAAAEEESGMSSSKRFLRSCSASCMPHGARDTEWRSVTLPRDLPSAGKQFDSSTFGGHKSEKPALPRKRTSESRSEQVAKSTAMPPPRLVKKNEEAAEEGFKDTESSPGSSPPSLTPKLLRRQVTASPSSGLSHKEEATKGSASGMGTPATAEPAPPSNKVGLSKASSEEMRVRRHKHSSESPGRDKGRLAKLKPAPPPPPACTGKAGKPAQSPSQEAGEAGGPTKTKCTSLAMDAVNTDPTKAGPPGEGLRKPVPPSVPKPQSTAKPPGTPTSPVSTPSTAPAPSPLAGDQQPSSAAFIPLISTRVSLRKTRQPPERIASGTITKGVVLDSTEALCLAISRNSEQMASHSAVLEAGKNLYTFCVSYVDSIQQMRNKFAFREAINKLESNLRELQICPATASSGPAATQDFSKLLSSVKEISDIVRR
T2 sequence (P05480 whole entry): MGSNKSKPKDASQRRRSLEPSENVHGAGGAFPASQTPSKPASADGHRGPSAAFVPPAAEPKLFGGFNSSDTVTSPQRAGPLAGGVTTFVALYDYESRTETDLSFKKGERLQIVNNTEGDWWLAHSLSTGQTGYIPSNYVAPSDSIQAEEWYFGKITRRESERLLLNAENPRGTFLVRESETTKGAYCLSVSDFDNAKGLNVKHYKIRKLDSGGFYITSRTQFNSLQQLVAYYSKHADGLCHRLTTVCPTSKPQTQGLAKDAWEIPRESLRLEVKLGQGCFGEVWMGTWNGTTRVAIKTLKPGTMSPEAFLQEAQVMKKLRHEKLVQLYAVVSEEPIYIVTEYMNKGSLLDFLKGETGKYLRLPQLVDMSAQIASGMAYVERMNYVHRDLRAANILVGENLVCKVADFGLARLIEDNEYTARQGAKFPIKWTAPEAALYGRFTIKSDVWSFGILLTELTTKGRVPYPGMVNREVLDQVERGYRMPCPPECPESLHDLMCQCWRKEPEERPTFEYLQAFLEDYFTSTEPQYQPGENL

In the case of `Cc1cccc(-c2cc3nccc(Nc4ccccc4)c3s2)c1` [BK40143, N-Phenyl-2-(m-tolyl)thieno[3,2-b]pyridin-7-amine], the “lactate dehydrogenase (LDH), neuroprotective effect” value ([1]; 1 μM, 16 hours of treatment, compared to control) is reported as “decrease”, the “LDH measured in the media (cell death / toxicity)” value ([1]; five hours of treatment) is reported as “does not result in toxicity or cell death” and the “LDH measured in the media (cell death / toxicity)” value ([1]; five hours of treatment, listed as BK41043) is reported as “without any change to LDH levels”. For the same molecule, the “cell viability via LDH” value ([1]; five hours of treatment, with decreasing concentrations) was “stepwise increase in cell viability”, the “pTau (181) level, ELISA” value ([2]; Tau expressing transgenic mice, seven days of treatment) was “reduces pTau (181)” and the “phosphorylated Tau (AT181), ELISA” value ([2]; rTG4510 mice, 2.5 mg/kg i.p., 7 consecutive days, 2.5 mg/kg) was “significantly reduced phosphorylated Tau”. The “levels of pTau (231) (AT180), Western blot” value [3] was “did not affect”, the “phosphorylated (active) DDR1 (pMCK10), immunoblot” value ([4]; rTG4510 mice, 7 days) was “deactivated DDR; also recorded: deactivated DDR1” and the “phosphorylated (active) DDR1 (pMCK10), immunoblot” value ([4]; rTG4510 mice, 7 days, listed as BK-40143) was “in vivo inhibition of DDR1”. For the same molecule, the “deactivation of DDR1 (phosphorylated DDR1 immunoblot)” value (shortened to “deactivation of DDR1”) ([4]; rTG4510 mice, 5 mg/kg i.p., 7 days) was “not”, the “deactivation of DDRs” value ([4]; rTG4510 tauopathy mouse model, i.p., 7 consecutive days) was “about 50%” and the “activated Src, immunoblot” value [5] was “did not engage”. The “activated Src, immunoblot” value ([5]; listed as BK-40143) was “does not engage”, the “activated Ab1, immunoblot” value [6] was “did not engage” and the “activated Ab1, immunoblot” value ([6]; listed as BK-40143) was “does not engage”. The “level of the dopamine metabolite homovanillic acid (HVA)” value [7] was “increase”, the “increase of overall level of dopamine” value ([7]; 2.5 mg/kg) was 30% and the “increase of overall level of dopamine” value ([7]; listed as BK-40143, 2.5 mg/kg) was “about 30%”. For the same molecule, the “total distance travelled, open field” value [8] was “did not show any difference”, the “total time spent moving, open field” value [8] was “did not show any difference” and the “velocity of movements, open field” value [8] was “significantly increased”. The “aggregating extracellular amyloid-beta (6E10), immunoblot” value [9] was “significantly reduced amyloid-beta plaques”, the “deactivation of DDR1” value ([10]; 1.25 mg/kg i.p.) was 40% and the “deactivation of DDR1” value ([10]; 2.5 mg/kg i.p.) was 31%. For the same molecule, the “cell death in the hippocampus (Nissl staining intensity)” value [11] was “does not cause cell death”.
